# From PubChem BioAssay (NCI)
#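 48-hour exposure; five concentrations; linearly interpolated endpoints. GI50 is the concentration that inhibits growth by half. TGI is the concentration that stops growth completely.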
# Tests used:
# Test in all cases: inhibition of tumour cell growth, NCI panel, 48 h
# [1] = tested on: NCI-H226 lung
# [2] = tested on: HS 578T breast
# [3] = tested on: HOP-62 NSCLC
# [4] = tested on: UACC-257 melanoma
# [5] = tested on: HCC-2998 colon
# [6] = tested on: OVCAR-3 ovarian
# [7] = tested on: DU-145 prostate
# [8] = tested on: NCI-H23 lung
# [9] = tested on: HOP-92 NSCLC
# [10] = tested on: MCF7 breast
# [11] = tested on: OVCAR-5 ovarian
# [12] = tested on: A549 NSCLC
# [13] = tested on: SF-268 CNS
# [14] = tested on: RPMI-8226 leukemia
# [15] = tested on: SR leukemia
# [16] = tested on: RXF 393 renal
# [17] = tested on: LOX IMVI melanoma
# [18] = tested on: T-47D breast
# [19] = tested on: UACC-62 melanoma
# [20] = tested on: IGROV1 ovarian
# [21] = tested on: OVCAR-8 ovarian
# [22] = tested on: UO-31 renal
# [23] = tested on: SNB-75 CNS
# [24] = tested on: OVCAR-4 ovarian
# [25] = tested on: HCT-116 colon
# [26] = tested on: TK-10 renal
# [27] = tested on: PC-3 prostate
# [28] = tested on: SN12C renal
# [29] = tested on: 786-0 renal
# [30] = tested on: MDA-MB-231 breast
# [31] = tested on: SK-MEL-2 melanoma
# [32] = tested on: HCT-15 colon
# [33] = tested on: NCI-H460 lung
# [34] = tested on: K-562 leukemia
# [35] = tested on: M14 melanoma
# [36] = tested on: KM12 colon
# [37] = tested on: SK-MEL-28 melanoma
# [38] = tested on: NCI-H522 lung
# [39] = tested on: SNB-19 CNS
# [40] = tested on: ACHN renal
# [41] = tested on: A498 renal
# [42] = tested on: COLO 205 colon
# [43] = tested on: HT29 colon
# [44] = tested on: SF-539 CNS
# [45] = tested on: MOLT-4 leukemia
# [46] = tested on: SK-OV-3 ovarian
# [47] = tested on: CCRF-CEM leukemia
# [48] = tested on: U251 CNS
# [49] = tested on: NCI/ADR-RES ovarian
# [50] = tested on: CAKI-1 renal
# [51] = tested on: HL-60(TB) leukemia
# [52] = tested on: SK-MEL-5 melanoma
# [53] = tested on: MDA-MB-435
# [54] = tested on: SF-295 CNS
# [55] = tested on: BT-549 breast
# [56] = tested on: SW-620 colon
# [57] = tested on: MALME-3M melanoma
# [58] = tested on: EKVX NSCLC
smiles,measurement,setting,value
Cn1cc(C2=C(c3c4n(c5ccccc35)CCN(C(N)=S)C4)C(=O)NC2=O)c2ccccc21,GI50,[1],5.84 µM
same,TGI,[1],> 19 µM
same,GI50,[2],0.88 µM
same,TGI,[2],11.1 µM
same,GI50,[3],6.81 µM
same,TGI,[3],> 25 µM
same,GI50,[4],7.11 µM
same,TGI,[4],> 25 µM
same,GI50,[5],6.13 µM
same,TGI,[5],20.8 µM
same,GI50,[6],1.75 µM
same,TGI,[6],7.36 µM
same,GI50,[7],8.04 µM
same,TGI,[7],> 23.1 µM
same,GI50,[8],7.34 µM
same,TGI,[8],> 25 µM
same,GI50,[9],8.82 µM
same,TGI,[9],> 25 µM
same,GI50,[10],1.24 µM
same,TGI,[10],> 17.2 µM
same,GI50,[11],16 µM
same,TGI,[11],> 25 µM
same,GI50,[12],5.55 µM
same,TGI,[12],> 25 µM
same,GI50,[13],5.58 µM
same,TGI,[13],> 25 µM
same,GI50,[14],12.9 µM
same,TGI,[14],> 25 µM
same,GI50,[15],1.35 µM
same,TGI,[15],> 15.1 µM
same,GI50,[16],2.34 µM
same,TGI,[16],10.6 µM
same,GI50,[17],2.5 µM
same,TGI,[17],> 25 µM
same,GI50,[18],10.4 µM
same,TGI,[18],> 25 µM
same,GI50,[19],4.27 µM
same,TGI,[19],> 25 µM
same,GI50,[20],7.82 µM
same,TGI,[20],> 19.1 µM
same,GI50,[21],7.13 µM
same,TGI,[21],> 25 µM
same,GI50,[22],4.37 µM
same,TGI,[22],> 21.7 µM
same,GI50,[23],0.36 µM
same,TGI,[23],10.6 µM
same,GI50,[24],6.87 µM
same,TGI,[24],> 25 µM
same,GI50,[25],4.11 µM
same,TGI,[25],> 16.8 µM
same,GI50,[26],8.64 µM
same,TGI,[26],> 23.7 µM
same,GI50,[27],4.92 µM
same,TGI,[27],> 25 µM
same,GI50,[28],6.99 µM
same,TGI,[28],> 25 µM
same,GI50,[29],5.23 µM
same,TGI,[29],> 25 µM
same,GI50,[30],6.95 µM
same,TGI,[30],> 23.2 µM
same,GI50,[31],4.32 µM
same,TGI,[31],13 µM
same,GI50,[32],6.31 µM
same,TGI,[32],> 25 µM
same,GI50,[33],6.91 µM
same,TGI,[33],> 22.8 µM
same,GI50,[34],1.59 µM
same,TGI,[34],> 17 µM
same,GI50,[35],4.71 µM
same,TGI,[35],> 25 µM
same,GI50,[36],3.05 µM
same,TGI,[36],9.69 µM
same,GI50,[37],5.34 µM
same,TGI,[37],> 25 µM
same,GI50,[38],1.95 µM
same,TGI,[38],> 15 µM
same,GI50,[39],12.8 µM
same,TGI,[39],> 25 µM
same,GI50,[40],5.95 µM
same,TGI,[40],> 25 µM
same,GI50,[41],1.59 µM
same,TGI,[41],9.64 µM
same,GI50,[42],5.97 µM
same,TGI,[42],> 21.6 µM
same,GI50,[43],2.28 µM
same,TGI,[43],> 25 µM
same,GI50,[44],1.48 µM
same,TGI,[44],7.86 µM
same,GI50,[45],5.12 µM
same,TGI,[45],> 20.9 µM
same,GI50,[46],4.51 µM
same,TGI,[46],> 25 µM
same,GI50,[47],4.61 µM
same,TGI,[47],> 25 µM
same,GI50,[48],4.49 µM
same,TGI,[48],11.2 µM
same,GI50,[49],9.48 µM
same,TGI,[49],> 25 µM
same,GI50,[50],4.85 µM
same,TGI,[50],> 20.8 µM
same,GI50,[51],2.33 µM
same,TGI,[51],8.05 µM
same,GI50,[52],2.67 µM
same,TGI,[52],> 16.7 µM
same,GI50,[53],0.883 µM
same,TGI,[53],5.98 µM
same,GI50,[54],2.64 µM
same,TGI,[54],10.8 µM
same,GI50,[55],6.83 µM
same,TGI,[55],> 25 µM
same,GI50,[56],3.45 µM
same,TGI,[56],> 25 µM
same,GI50,[57],> 11 µM
same,TGI,[57],> 25 µM
O=C(O)c1sccc1O,GI50,[1],> 100 µM
same,TGI,[1],> 100 µM
same,GI50,[2],24.9 µM
same,TGI,[2],> 100 µM
same,GI50,[3],22.2 µM
same,TGI,[3],> 100 µM
same,GI50,[4],47.2 µM
same,TGI,[4],> 100 µM
same,GI50,[5],36.6 µM
same,TGI,[5],> 100 µM
same,GI50,[6],32.7 µM
same,TGI,[6],> 100 µM
same,GI50,[7],48 µM
same,TGI,[7],> 100 µM
same,GI50,[8],37.3 µM
same,TGI,[8],> 100 µM
same,GI50,[9],24.9 µM
same,TGI,[9],> 100 µM
same,GI50,[10],31.5 µM
same,TGI,[10],> 100 µM
same,GI50,[11],76.3 µM
same,TGI,[11],> 100 µM
same,GI50,[12],50.3 µM
same,TGI,[12],> 100 µM
same,GI50,[13],33.2 µM
same,TGI,[13],> 100 µM
same,GI50,[14],25.2 µM
same,TGI,[14],> 100 µM
same,GI50,[15],34.5 µM
same,TGI,[15],> 100 µM
same,GI50,[16],32 µM
same,TGI,[16],> 100 µM
same,GI50,[17],26.4 µM
same,TGI,[17],> 100 µM
same,GI50,[18],33.3 µM
same,TGI,[18],> 100 µM
same,GI50,[19],17.9 µM
same,TGI,[19],52 µM
same,GI50,[20],21.8 µM
same,TGI,[20],> 100 µM
same,GI50,[21],47.7 µM
same,TGI,[21],> 100 µM
same,GI50,[22],15.2 µM
same,TGI,[22],> 100 µM
same,GI50,[23],15.9 µM
same,TGI,[23],> 100 µM
same,GI50,[24],26.4 µM
same,TGI,[24],> 100 µM
same,GI50,[25],31.2 µM
same,TGI,[25],> 100 µM
same,GI50,[26],89.6 µM
same,TGI,[26],> 100 µM
same,GI50,[27],24.2 µM
same,TGI,[27],> 100 µM
same,GI50,[28],32.7 µM
same,TGI,[28],> 100 µM
same,GI50,[29],60.9 µM
same,TGI,[29],> 100 µM
same,GI50,[30],16.4 µM
same,TGI,[30],73.5 µM
same,GI50,[31],35.1 µM
same,TGI,[31],> 100 µM
same,GI50,[32],32.1 µM
same,TGI,[32],> 100 µM
same,GI50,[33],33.5 µM
same,TGI,[33],> 100 µM
same,GI50,[35],27 µM
same,TGI,[35],> 100 µM
same,GI50,[36],30.6 µM
same,TGI,[36],> 100 µM
same,GI50,[37],32.2 µM
same,TGI,[37],> 100 µM
same,GI50,[38],25.4 µM
same,TGI,[38],80.7 µM
same,GI50,[39],41.3 µM
same,TGI,[39],> 100 µM
same,GI50,[40],28.6 µM
same,TGI,[40],> 100 µM
same,GI50,[41],52.3 µM
same,TGI,[41],> 100 µM
same,GI50,[42],60.1 µM
same,TGI,[42],> 100 µM
same,GI50,[43],57.5 µM
same,TGI,[43],> 100 µM
same,GI50,[44],28.8 µM
same,TGI,[44],> 100 µM
same,GI50,[45],34.9 µM
same,TGI,[45],> 100 µM
same,GI50,[46],> 100 µM
same,TGI,[46],> 100 µM
same,GI50,[47],31.9 µM
same,TGI,[47],> 100 µM
same,GI50,[48],34.7 µM
same,TGI,[48],> 100 µM
same,GI50,[49],40.5 µM
same,TGI,[49],> 100 µM
same,GI50,[58],21.7 µM
same,TGI,[58],> 100 µM
same,GI50,[51],33.9 µM
same,TGI,[51],90.1 µM
same,GI50,[52],25.3 µM
same,TGI,[52],99.2 µM
same,GI50,[53],27.1 µM
same,TGI,[53],> 100 µM
same,GI50,[54],34.8 µM
same,TGI,[54],> 100 µM
same,GI50,[55],21.6 µM
same,TGI,[55],> 100 µM
same,GI50,[56],31.4 µM
same,TGI,[56],> 100 µM
same,GI50,[57],83.4 µM
same,TGI,[57],> 100 µM
